These are literature values, as cited in patent EP4520318A1, “TRANSDERMAL THERAPEUTIC SYSTEM OF LUMATEPERONE” (Luye Pharma Switzerland AG, priority 2023, dated 2025).

Each structure is given as a SMILES string.

The conditions of this data set: oral administration.

Regarding `CN1CCN2c3c(cccc31)[C@@H]1CN(CCCC(=O)c3ccc(F)cc3)CC[C@@H]12` [lumateperone, 1-(4-fluoro-phenyl)-4-((6bR, 10aS)-3-methyl-2,3,6b,9,10,10a-hexahydro-1H,7H-pyrido[3',4':4,5]pyrrolo[1,2,3-de]quinoxalin-8-yl)-butan-1-one], the oral bioavailability entry is “about 4.4%”.
